Source: patent EP1343508B1, “USE OF AN OESTROGEN IN THE MANUFACTURE OF A COMPOSITION CONTAINING OESTROGEN FOR THE TREATMENT OF ATROPHIC VAGINITIS” (Novo Nordisk Femcare AG, priority 2000, dated 2002)

Assays:
[1] = test system: FSH; assay: Serum FSH concentration (immunoradiometric assay), Example 2; format: in vivo, postmenopausal women; conditions: 25 µg E2; Week 12
Description: Maturation values of vaginal mucosal cells were assessed as an indicator of changes in the condition of the vaginal mucosa in response to treatment.
After the screening visit, patients received no study treatment during the 4-week run-in period prior to the baseline visit. […] The vaginal tablets were identical in appearance. Patients inserted 1 tablet intravaginally, once daily for the initial 2 weeks of the study and then twice per week (Sunday and Thursday) for the remaining 10 weeks. Patients were instructed to use their medication at a consistent time each day, preferably in the morning.
Upon presentation to the clinic for each visit, a vaginal cytology specimen was obtained. Patients then inserted the tablets. […] The blood samples obtained at 30 minutes before insertion, and at 6, 12, and 24 hours after insertion were also used to determine the FSH concentration via immunoradiometric assay.
Data for area under the curve and maximal concentration were converted to a logarithmic scale, and changes from first dose (at the baseline visit) in the logarithmic values were estimated using 95% confidence intervals derived from paired t-tests. […] Differences within treatment groups in FSH concentration were determined using the Wilcoxon signed rank test based on changes from baseline in mean concentrations at weeks 2 and 12. […]

[2] = test system: postmenopausal women with atrophic vaginitis; assay: Vaginal symptom composite score (dryness, soreness, irritation), Example 3; format: in vivo; conditions: scale 0-3
Description: Efficacy was measured with composite scores of vaginal symptoms (dryness, soreness, and irritation) and vaginal health (secretions, epithelial integrity, surface thickness, and pH). Vaginal and urethral cytology analyses were also performed, and the vaginal maturation value was determined. Safety assessments included endometrial biopsies. […] All vaginal tablets were identical in appearance. Patients inserted 1 tablet daily for 14 days. Thereafter, patients inserted 1 tablet twice per week (Sunday and Thursday) for the remainder of the trial. Patients were to insert the tablets at the same time each day (preferably at bedtime). Patients were evaluated for efficacy and safety at Week - 4 (screening), Week 0 (baseline), and Weeks 2, 7, and 12. Efficacy assessments included patient ratings of atrophic vaginitis symptoms, investigator ratings of vaginal health, and vaginal and urethral cytology. Patients used intensity ratings of none, mild, moderate, or severe to evaluate atrophic vaginitis symptoms (dryness, soreness, irritation, dyspareunia, and vaginal discharge). Intensity ratings were assigned ascending scores from 0 (none) to 3 (severe) for analysis. A composite score for atrophic vaginitis symptoms was defined as the average of the individual symptom scores for dryness, soreness, and irritation. […] The composite score and the change from baseline for the composite score were examined at each time point. Differences within and between treatment groups were analyzed using an analysis of variance (ANOVA). […] Efficacy was measured with composite scores of vaginal symptoms (dryness, soreness, and irritation) and vaginal health (secretions, epithelial integrity, surface thickness, and pH). Vaginal and urethral cytology analyses were also performed, and the vaginal maturation value was determined. Safety assessments included endometrial biopsies. […] Patients were evaluated for efficacy and safety at Week - 4 (screening), Week 0 (baseline), and Weeks 2, 7, and 12. […] Differences within and between treatment groups were analyzed using an analysis of variance (ANOVA).

[3] = test system: vaginal mucosa; assay: Vaginal maturation value, Example 3; format: in vivo, postmenopausal women
Description: Efficacy was measured with composite scores of vaginal symptoms (dryness, soreness, and irritation) and vaginal health (secretions, epithelial integrity, surface thickness, and pH). Vaginal and urethral cytology analyses were also performed, and the vaginal maturation value was determined. Safety assessments included endometrial biopsies.
All vaginal tablets were identical in appearance. Patients inserted 1 tablet daily for 14 days. Thereafter, patients inserted 1 tablet twice per week (Sunday and Thursday) for the remainder of the trial. Patients were to insert the tablets at the same time each day (preferably at bedtime). Patients were evaluated for efficacy and safety at Week - 4 (screening), Week 0 (baseline), and Weeks 2, 7, and 12.
Vaginal and urethral cell samples were harvested and analyzed by independent cytologists to determine the percentages of parabasal, intermediate, and superficial cells. Maturation values were calculated according to the following equation: maturation value = 1.0 × [superficial cells, %] + 0.5 × [intermediate cells, %] [formula] Endometrial biopsies were performed at the end of the study in patients with intact uteri. The number of patients with abnormal biopsies was compared between treatment groups.

C[C@]12CC[C@@H]3c4ccc(O)cc4CC[C@H]3[C@@H]1CC[C@@H]2O [E2, 17β-estradiol]
patients with mean FSH concentrations below 35 mIU/mL [1]: 3 patients
vaginal symptom composite score ([2]; 10 µg E2, Week 12): ~0.6
vaginal symptom composite score ([2]; 25 µg E2, Week 12): approximately 0.5
vaginal symptom composite score ([2]; each treatment group (25 or 10 µg E2), Week 0 (baseline)): approximately 1.9
maturation values ([3]; active treatment groups (25 or 10 µg E2), Week 12): approximately 60%
maturation values ([3]; each treatment group (25 or 10 µg E2), Week 0): approximately 45%
